The record followed here is PMC12053052, “Comprehensive physicochemical, biophysical, and in vitro characterization of lung surfactant SP-A peptidomimetics” (Rsc Pharmaceutics, 2025).

Experiment in series [1]: not given
The source holds these as a separate data set.

The nature of series [2]: In vitro solubility in pure solvents. The class given is physicochemical. The settings on record: excess solid, rotated 24 h at ambient room temperature, 0.2 μm filtered, HPLC-UV 220 nm, mean ± SD, N = 3; for solubility thermodynamic at 24 h: PBS, pH 7.4, aqueous buffer, thermodynamic from solid. Here is the method:
In vitro solubility measurements were conducted using conditions earlier reported.[13] Excess of peptide powder was added to known volume of pure solvent in a glass vial. The vial was allowed to rotate at ambient room temperature for 24 hours.[13] The test solution was filtered using 0.2 μm PTFE or PVDF membrane filters for organic and aqueous solvents respectively. The filtered solution was chemically analyzed by HPLC using conditions described in the HPLC section below.
(§1) High-performance liquid chromatography was used to quantify the peptides. The analysis was performed with a Shimadzu LC-2010AHT HPLC system (Kyoto, Japan), with autosampler fitted to a 20 μL sampling loop and dual wavelength UV-Vis detector and reverse phase C18 Phenomenex Prodigy™column (Torrance, CA) with 250 × 4.6 mm, 5 μm particle size. The mobile phase consisted of (A) 0.065% TFA in water and (B) 0.05% TFA in ACN at a flow rate of 1.0 mL min^−1. Analysis was performed using the following gradient elution method: 100% A to 100% B in 15 minutes, maintained at 100% B until 17.5 minutes. The percentage of A reached 100% in 19.5 minutes and maintained until 25 minutes. The column was maintained at 25 °C. The injection volume was 20 μL. The UV detector was set at 220 nm wavelength. The solvents used to dissolve 10-AA and 20-AA peptide analysis were PBS and pure water, respectively.

Series [3] has as its system A549 (human alveolar epithelial lung cells). The experiment in a line: In vitro cell viability, resazurin assay. It is filed as cell-based. The settings on record: 0.1–1000 μM peptide, 72 h, relative to growth medium control, n = 6, ANOVA/Tukey p < 0.05. The text has this: (§2) The cell viability of three different human pulmonary cell lines from different lung areas representing the conducting airways, the mid-lung and deep lung respiratory regions of the small airways. They are A549 (human alveolar epithelial lung cells), H358 (human bronchioalveolar epithelial cells) and NCI-H441 (human papillary lung adenocarcinoma cells), were studied using the Resazurin assay. Pulmonary cell lines A549 (ATCC® CCL-185™), H358 (ATCC® CRL-5807™) and NCI-H441 (ATCC® HTB-174™) were purchased from the American Type Culture Collection ATCC® (Manassas, VA). As previously reported,[16] A549 and H358 were grown in Dulbecco's modified eagle's medium (DMEM) Advanced 1× supplemented with 10% v/v fetal bovine serum (FBS), Pen-Strep (100 U mL^−1, 100 μg mL^−1), Fungizone® (0.5 μg mL^−1 amphotericin B, 0.41 μg mL^−1 sodium deoxycholate) and 2 mM L-glutamine obtained from Gibco® by Life Technologies (Thermo Fisher Scientific Inc., Waltham, MA). H441 cell line was grown in RPMI 1640 with L-glutamine Gibco® by Life Technologies (Thermo Fisher Scientific Inc., Waltham, MA).
(§3) The assay was conducted using similar previously reported conditions.[16] Briefly, in Nunc™ MicroWell™ 96-well optical-bottom plates with polymer base (ThermoScientific Waltham, MA) each cell line was seeded at a concentration of 5000 cells in 100 μL per well (six wells, n = 6) and allowed to attach for 48 hours. The cells were treated with 100 μL volume of different concentrations (0.1–1000 μM) of the peptides dissolved in the respective media. After 72 hours, the plate was treated with 20 μL of 10 μM resazurin solution. After 3–4 hours, the fluorescence intensity was read at 514 nm (excitation) and 590 nm (emission) wavelengths using the Synergy H1 Multi-Mode Reader (BioTek Instruments, Inc., Winooski, Vermont). The corresponding growth media was used as control for each cell line. Relative viability was calculated as a ratio of fluorescence intensity of the sample to the control. [drawing 1]

Series [4] concerns NCI-H441 (human papillary lung adenocarcinoma cells). The experiment in a line: In vitro cell viability, resazurin assay. The class given is cell-based. The settings on record: 0.1–1000 μM peptide, 72 h, relative to growth medium control, n = 6, ANOVA/Tukey p < 0.05.
From the text: as §2, §3

Series [5] deals with H358 (human bronchioalveolar epithelial cells). The experiment in a line: In vitro cell viability, resazurin assay. The class given is cell-based. The following applies: 0.1–1000 μM peptide, 72 h, relative to growth medium control, n = 6, ANOVA/Tukey p < 0.05.
From the text: as §2, §3

Series [6] can be described thus: Octanol/water partition coefficient. It is filed as physicochemical. The settings on record: shake-flask 1-octanol/water 50:50 v/v, 3 mg peptide in 3 mL, 37 °C, 24 h shaking + 24 h separation, HPLC-UV 220 nm, mean ± SD, N = 3. Here is the method: Using similar conditions reported earlier,[14] octanol/water partition coefficient (P) measurements were conducted. A mass of 3 mg of peptide powder was added to 3 mL of 1-octanol (1.5 mL) and water (1.5 mL) to create a 50 : 50 v/v octanol : water ratio in a glass vial and allowed to shake in temperature-controlled water bath at 37 °C. After 24 hours, the shaker was stopped and the vial was undisturbed for 24 hours to allow the solvents to separate. An aliquot (20 μL) of water phase and octanol phase was injected into HPLC to quantify the peptide concentration in each phase.
as §1, with “The solvents used to dissolve 10-AA and 20-AA peptide analysis were PBS and pure water, respectively.” left out

“And” between values parts separate entries of the source, which are not always exact repeats. Equal entries are not always repeated. “Also recorded” adds a separate entry of the source. No end group written: not given here.

Regarding H-PAGRGKEQCVEMYTDGQWND-OH, the Enthalpy (ΔH) of melting was 1.08 J/g.
With H-KEQCVEMYTD-OH, the Enthalpy (ΔH) of melting is 3.08 J/g. For the same substance, in series [1], the Melting temperature (Tm), characteristic endothermic peak is 171 °C and 168 °C.
PAGRGKEQCVEMYTDGQWND [SP-A 20-AA AC]: in series [2] (thermodynamic), the “Solubility in absolute ethanol” value is 20 ± 20 µg/mL and the Solubility in methanol was found to be 20 ± 5 µg/mL. Also, in series [3], the “Relative cell viability, A549” value was “significantly reduced cell viability at concentrations above 100 μM”. Also, the “Relative cell viability, H441” value in series [4] is recorded as “reduction in viability at higher concentrations; also recorded: significantly reduced cell viability at concentrations above 100 μM”.
In turn, PAGRGKEQCVEMYTDGQWND [SP-A 20-AA PS] showed a thermodynamic solubility at 24 h in series [2] of 470 ± 4 µg/mL. Besides, in series [2] (thermodynamic), the “Solubility in absolute ethanol” value came to 110 ± 50 µg/mL and the Solubility in methanol came out at 1450 ± 20 µg/mL. For the same substance, in series [5], the “Relative cell viability, H358” value is “decreased viability at higher concentrations; also recorded: statistically significant decrease in viability only with 20-AA PS at 1000 μM”.
In the case of KEQCVEMYTD [SP-A 10-AA AC], in series [2] (thermodynamic), the “Solubility in MilliQ water” value is 420 ± 40 µg/mL, the “Solubility in PBS (pH 7.4)” value was 1.16 ± 0.01 mg mL^−1, the “Solubility in absolute ethanol” value stood at 40 ± 10 µg/mL and the Solubility in methanol is 10 ± 0.3 µg/mL. Also, in series [6] (read-out: Log P (octanol/water partition coefficient)), the logP was -1.07 ± 0.2.
In series [2], KEQCVEMYTD [SP-A 10-AA PS] had a thermodynamic solubility at 24 h of 1810 ± 20 µg/mL. In series [2] (thermodynamic), the “Solubility in MilliQ water” value worked out at 12200 ± 50 µg/mL, the “Solubility in absolute ethanol” value was found to be 2060 ± 30 µg/mL and the Solubility in methanol came to 4250 ± 10 µg/mL. Further, in series [6], the “Log P (octanol/water partition coefficient)” value was −1.79.
